Laboratory results taken from ChEMBL document CHEMBL1177644, “16-bromoepiandrosterone, an activator of the mammalian immune system, inhibits glucose 6-phosphate dehydrogenase from Trypanosoma cruzi and is toxic to these parasites grown in culture” (Bioorg Med Chem, 2010).

Key:
[1] = Inhibition of His-tagged Trypanosoma cruzi G6PDH expressed in Escherichia coli BL21 by spectrophotometry
Trypanosoma cruzi = assay: Antitrypanosomal activity against Trypanosoma cruzi Y epimastigotes assessed as viability after 72 hrs by MTS assay; assay type: functional; conditions: read-out: LD50 (the source's name)

C[C@]12CC[C@H](O)C[C@@H]1CC[C@@H]1[C@@H]2CC[C@]2(C)C(=O)CC[C@@H]12 [EPIANDROSTERONE]
IC50 [1]: 5.6 µM
LC50 (Trypanosoma cruzi): 36.5 µM

C[C@]12CC[C@H](O)CC1=CC[C@@H]1[C@@H]2CC[C@]2(C)C(=O)[C@H](Br)C[C@@H]12
IC50 [1]: 0.216 µM
LC50 (Trypanosoma cruzi): 20.6 µM

C[C@]12CC[C@H](O)C[C@@H]1CC[C@@H]1[C@@H]2CC[C@]2(C)C(=O)[C@H](Br)C[C@@H]12 [16.ALPHA.-BROMOEPIANDROSTERONE]
IC50 [1]: 0.086 µM
LC50 (Trypanosoma cruzi): 12.4 µM

C[C@]12CC[C@H](O)CC1=CC[C@@H]1[C@@H]2CC[C@]2(C)C(=O)CC[C@@H]12 [PRASTERONE]
IC50 [1]: 25 µM
